Experimental data reported in US20240279218A1 (Hoffmann-La Roche Inc., priority 2016, published 2024).

Key:
h-GABA-A α5β3γ2 [1] = target: T1, h-GABA-A α5β3γ2 (Homo sapiens (Human), UniProt P18507+P31644); test: [3H]flumazenil competition binding assay, membranes of HEK293 cells expressing human GABAA receptors; details: displacement of [3H]flumazenil 0.5 nM, HEK293 cells expressing human receptors, mean of two determinations; read-out: Ki h-GABA-A α5β3γ2
Summary of the method: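 Displacement of [3H]flumazenil from membranes of HEK293 cells transiently expressing human α5β3γ2 receptors, in Krebs-tris buffer pH 7.5. Incubation to equilibrium, 1 h at 4° C., then filtration and scintillation counting. Ki is the mean of two determinations.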

h-GABA-A α5β3γ2 [2] = target: T1, h-GABA-A α5β3γ2; test: Two-electrode voltage clamp electrophysiology in Xenopus oocytes expressing GABAA receptors, modulation of GABA EC20 current; type: cell-based; details: Xenopus oocytes; for Efficacy (GABA) %: % modulation of GABA EC20 = 100*(Fold increase−1); for Fold increase h-GABA-A α5β3γ2 oocyte: GABA EC20, test compound at approx. 30 fold its Ki
Summary of the method: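 Values are % modulation of an EC20 GABA response, derived point by point from the ratio of compound-exposed versus control current traces (extremum taken, 100×(fold−1)). Recordings used oocytes injected with human α5, β3, γ2 mRNA, clamped at −80 mV at room temperature, at least 3 oocytes each.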

Row | Structure (SMILES) | Ki (h-GABA-A α5β3γ2 [1]) [nM] | Efficacy (GABA) % (h-GABA-A α5β3γ2 [2]) [%] | Fold increase h-GABA-A α5β3γ2 oocyte (h-GABA-A α5β3γ2 [2])
1 | CCC[C@H](CO)NC(=O)c1ccc(OCc2c(-c3ccc(C)nc3)noc2C)nc1 [Example 124, (R)—N-(1-hydroxypentan-2-yl)-6-((5-methyl-3-(6-methylpyridin-3-yl)isoxazol-4-yl)methoxy)pyridine-3-carboxamide] | 36.6 | 47 | 1.47
2 | CCC[C@@H](CO)NC(=O)c1ccc(OCc2c(-c3ccc(C)nc3)noc2C(F)F)nc1 [Example 125, 6-((5-(difluoromethyl)-3-(6-methyl-3-pyridyl)isoxazol-4-yl)methoxy)-N-((1S)-1-(hydroxymethyl)butyl)pyridine-3-carboxamide] | 59 | 142 | 2.42
3 | Cc1ccc(-c2noc(C(F)F)c2COc2ccc(C(=O)NC3CCOCC3)cn2)cn1 [Example 126, 6-((5-(difluoromethyl)-3-(6-methyl-3-pyridyl)isoxazol-4-yl)methoxy)-N-tetrahydropyran-4-yl-pyridine-3-carboxamide] | 49.8 | 49 | 1.49
4 | Cc1ccc(-c2noc(C)c2COc2ccc(C(=O)N[C@H]3CCOC[C@@H]3O)cn2)cn1 [Example 127, N-((3R,4S)-3-hydroxytetrahydropyran-4-yl)-6-((5-methyl-3-(6-methyl-3-pyridyl)isoxazol-4-yl)methoxy)pyridine-3-carboxamide] | 22.8 | 50 | 1.5
5 | Cc1onc(-c2ccc(C3CC3)nc2)c1COc1ccc(C(=O)NC2CCOCC2)cn1 [Example 128, 6-((3-(6-cyclopropyl-3-pyridyl)-5-methyl-isoxazol-4-yl)methoxy)-N-tetrahydropyran-4-yl-pyridine-3-carboxamide] | 6.1 | 107 | 2.07
6 | CCC[C@@H](CO)NC(=O)c1ccc(OCc2c(-c3ccc(C4CC4)nc3)noc2C)nc1 [Example 129, 6-((3-(6-cyclopropyl-3-pyridyl)-5-methyl-isoxazol-4-yl)methoxy)-N-((1S)-1-(hydroxymethyl)butyl)pyridine-3-carboxamide] | 25.6 | 156 | 2.56
7 | Cc1onc(-c2ccc(C3CC3)nc2)c1COc1ccc(C(=O)NC2CCS(=O)(=O)CC2)cn1 [Example 130, 6-((3-(6-cyclopropyl-3-pyridyl)-5-methyl-isoxazol-4-yl)methoxy)-N-(1,1-dioxothian-4-yl)pyridine-3-carboxamide] | 30.4 | 128 | 2.28
8 | Cc1ccc(-c2noc(C)c2COc2ccc(C(=O)N[C@@H]3CCCC(F)(F)[C@H]3O)cn2)cn1 [Example 131, N-((1R,2S)-3,3-difluoro-2-hydroxycyclohexyl)-6-((5-methyl-3-(6-methylpyridin-3-yl)isoxazol-4-yl)methoxy)pyridine-3-carboxamide] | 26 | 51 | 1.51
9 | Cc1ccc(-c2noc(C)c2COc2ccc(C(=O)N[C@@H]3CCCC[C@H]3O)cn2)cn1 [Example 132, N-((1R,2R)-2-hydroxycyclohexyl)-6-((5-methyl-3-(6-methylpyridin-3-yl)isoxazol-4-yl)methoxy)pyridine-3-carboxamide] | 37.7 | 64 | 1.64
